We go through one compound from patent US20230293519A1, “INTEGRIN INHIBITORS AND USES THEREOF IN COMBINATION WITH OTHER AGENTS” (Pliant Therapeutics, Inc., priority 2021, published 2023).

For assay [1], the system named is lung Col1a1 expression. The assay is described as follows: Precision cut lung slices of mice under chronic bleomycin exposure (single vs dual integrin inhibition). As to conditions: slices cultured 7 days. In kind it is cell-based, mouse. On the procedure:
Mice (C57BL/6) were administered 3 U/kg of bleomycin (Teva Pharmaceuticals; North Wales, PA) on Day 0 and 1 U/kg of bleomycin on days 14, 28, 42 and 56 via oropharyngeal aspiration while under anesthesia. At day 70, 14 days after the final bleomycin insult, precision cut lung slices were obtained. Following euthanization, 2% low gelling temp agarose was injected into the mouse lungs via the trachea. […] The lobes were then subjected to precision slicing to obtain samples for culture using a microtome (Compresstome VF-300-0Z, Precisionary; Greenville, NC). Individual slices were distributed in a multiwell culture plate and cultured for 7 days under control (DMSO) and test compound conditions. […]
During the culture period, slices in the control group were treated with DMSO and slices in the test group were treated with a DMSO solution of one of: the selective antibody αvβ6 inhibitor 3G9; the αvβ1-selective small molecule inhibitor; a combination of the selective antibody αvβ6 inhibitor 3G9 and the αvβ1-selective small molecule inhibitor; compound 5; and the small molecule ALK5 inhibitor. The selective αvβ1 and αvβ6 integrin inhibitors were analyzed at ≥ their respective IC90 concentrations for inhibition of TGF-beta activation. […] The small molecule ALK5 inhibitor was analyzed at 10x its reported IC50 value.

Assay [2] has as its system lung Col1a1 expression. As to the kind of experiment: Precision cut lung slices from human IPF explants, 3 days. As to conditions: 3G9 ≥400 ng/mL, compound 5 179 nM, ALK5 inhibitor 1 µM. In kind it is cell-based. From the text: Explanted lung tissue was obtained from human IPF subjects and inflated with agarose as described in the preceding examples. Biopsy cores were obtained from the agarose-inflated lung tissue. The biopsy cores were subjected to precision slicing to obtain several hundred µm thick. Individual slices were distributed in a multiwell culture plate and cultured for 3 days under control (DMSO) and test compound conditions. The viability of the slices over the course of culturing was confirmed by WST-1 assay of mitochondrial activity.

For assay [3], the system named is lung Col1a1 expression. As to the kind of experiment: Precision cut lung slices of mice under chronic bleomycin exposure (vs pirfenidone and nintedanib). In kind it is cell-based, mouse. As to conditions: slices cultured 7 days; nintedanib and pirfenidone at 10x therapeutic concentrations. On the procedure: Mice (C57BL/6) were administered 3 U/kg of bleomycin (Teva Pharmaceuticals; North Wales, PA) on Day 0 and 1 U/kg of bleomycin on days 14, 28, 42 and 56 via oropharyngeal aspiration while under anesthesia. At day 70, 14 days following the final bleomycin insult, precision cut lung slices were obtained. Following euthanization, 2% low gelling temp agarose was injected into the mouse lungs via the trachea. […] The lobes were then subjected to precision slicing to obtain samples for culture using a microtome (Compresstome VF-300-0Z, Precisionary; Greenville, NC). Individual slices were distributed in a multiwell culture plate and cultured for 7 days under control (DMSO) and test compound conditions. The viability of the slices over the course of culturing was confirmed by WST-1 assay of mitochondrial activity.
During the culture period, slices in the control group were treated with DMSO and slices in the test group were treated with a DMSO solution of one of: compound 5; nintedanib; pirfenidone; a combination of nintedanib and compound 5; a combination of pirfenidone and compound 5; or the small molecule ALK5 inhibitor. Compound 5 was […] effective to equal or exceed its respective IC50 values at αvβ6 and αvβ1. The small molecule ALK5 inhibitor was analyzed at 10x its reported IC50 value. Nintendanib and pirfenidone were analyzed at concentrations 10x their reported therapeutic concentrations.

Assay [4] has as its system Type I Collagen gene Col1a1 expression. The assay is described as follows: Precision cut lung slices of mice under acute bleomycin exposure. In kind it is cell-based, mouse. As to conditions: slices cultured 3 days; integrin inhibitors at IC50, pan-αv and ALK5 inhibitors at 10x IC50. On the procedure:
Mice (C57BL/6) were administered 3 U/kg of bleomycin (Teva Pharmaceuticals; North Wales, PA) on day 0 via oropharyngeal aspiration while under anesthesia. On day 14, precision cut lung slices were obtained. Following euthanization, 2% low gelling temp agarose was injected into the mouse lungs via the trachea. […] The lobes were then subjected to precision slicing to obtain samples for culture using a microtome (Compresstome VF-300-0Z, Precisionary; Greenville, NC). Individual slices were distributed in a multiwell culture plate and cultured for 3 days under control (DMSO) and test compound conditions.

`Cc1cccc(-c2n[nH]cc2-c2ccc(F)c(-c3cnn(CCO)c3)c2)n1` [small molecule ALK5 inhibitor, 4-[2-Fluoro-5-[3-(6-methyl-2-pyridinyl)-1H-pyrazol-4-yl]phenyl]-1H-pyrazole-1-ethanol, reference compound]: the “lung Col1a1 expression vs DMSO control” value in assay [1] is on record as “greatest decrease”; in assay [2] it was “substantial, statistically significant”; in assay [3], “substantial, statistically significant”. In addition, the “Type I Collagen gene Col1a1 expression vs DMSO control” value in assay [4] is “greatest decrease”.
